# Tests used:
# [1] = tested on: Mouse erythroleukemic cells (MEL); assay: HMBA-induced differentiation of erythroleukemic cells; assay type: cell-based; conditions: day 3
# Experimental: Mouse erythroleukemic cells (MEL): MEL cells are erythroblast like cells. Following treatment with several chemicals (differentiation inducers) the cells undergo erythroid differentiation and accumulate hemoglobin. […] At day 3 of the culture, the total number of cells and the percentage of hemoglobin-containing cells were determined (Table 7).
# On day 3, total cell number and hemoglobin containing (benzidine positive) cells were determined.
# [2] = tested on: Boston fern Callus tissue cultures; assay: Intracellular copper content of plant callus tissues incubated with TEPA; assay type: cell-based; conditions: two days
# Experimental: Plant cells: The effect of TEPA on the intracellular copper content of plant cells was determined as follows. Boston fern Callus tissue cultures were obtained from a commercial plant tissue culture production facility (Biological Industries, Kibbutz Bet Ha'Emek, Israel) and incubated with different concentrations of TEPA in the culture medium for two days at room temperature. After three washes with PBS the tissues were suspended in 0.03 M ultra pure nitric acid and homogenized with a high shear mixer (polytron, Kinematica, Switzerland) for 3 minutes to disrupt the cells and release intracellular copper. Cell samples were vortexed before transferring to a vial autosampler and analyzed in duplicate by a Perkin Elmer graphite furnace atomic absorption spectrophotometer at a wavelength of 324.7 nm. The samples were analyzed against copper standard solution prepared from a commercial stock solution that was diluted with 0.03 M ultra pure nitric acid.
# [3] = tested on: NOD/SCID mice; assay: Engraftment of SCID mice by ex-vivo expanded human hematopoietic cells; assay type: in vivo; conditions: for Engraftment CD19 (%) / Engraftment CD34 (%) / Engraftment CD45 (%) / Engraftment Colonies (per 2 × 10^5 SCID BM cells): TEPA + Cytokines
# Experimental: Engraftment of SCID mice by ex-vivo expanded human hematopoietic cells: […] After 4 weeks, the mice were sacrificed and their femora and tibias were excised and the bone marrow flushed with a syringe fitted with a 25 gauge needle. A single cell suspension was prepared, the cells were washed and an aliquot counted with Trypan blue. In order to quantitate engrafted cells of human origin, cells were stained with FITC-conjugated anti CD45 antibodies and PE-conjugated either anti CD34, CD19 or CD33 antibodies. Anti CD45 antibodies recognize human, but not mouse, cells, and thus, indicates the human origin of the cells. The proliferation and differentiation potential of the engrafted cells was assayed by cloning bone marrow cells in semi-solid medium under conditions that allow specifically growth of human derived colonies essentially as described in (56).
# [4] = CB 2 (first listed) 10% FCS, 2 weeks ex-vivo
# [5] = CB 2 (second listed) 10% FCS, 2 weeks ex-vivo
smiles,measurement,setting,value
"NCCNCCNCCNCCN [TEPA, tetraethylenepentamine]",Benzidine Positive Cells (%),[1]; HMBA + chelator 5 μM,24%
same,Cells/ml (×10^4),[1]; HMBA + chelator 5 μM,35 ×10^4
same,Benzidine Positive Cells (%),[1]; HMBA + chelator 10 μM,16%
same,Cells/ml (×10^4),[1]; HMBA + chelator 10 μM,35 ×10^4
same,Benzidine Positive Cells (%),[1]; HMBA + chelator 20 μM,16%
same,Cells/ml (×10^4),[1]; HMBA + chelator 20 μM,47 ×10^4
same,Average Intracellular Copper Content (ppb),[2]; TEPA 10 μM in medium,13.85 +/− 4.09 ppb
same,Average Intracellular Copper Content (ppb),[2]; TEPA 50 μM in medium,8.45 +/− 0.05 ppb
same,Average Intracellular Copper Content (ppb),[2]; TEPA 100 μM in medium,7.1 +/− 2.12 ppb
same,Engraftment CD19 (%),[3]; [4],11%
same,Engraftment CD34 (%),[3]; [4],13%
same,Engraftment CD45 (%),[3]; [4],56%
same,Engraftment Colonies (per 2 × 10^5 SCID BM cells),[3]; [4],330
same,Engraftment CD19 (%),[3]; [5],9%
same,Engraftment CD34 (%),[3]; [5],13.5%
same,Engraftment CD45 (%),[3]; [5],48%
same,Engraftment Colonies (per 2 × 10^5 SCID BM cells),[3]; [5],528
same,Engraftment CD19 (%),"[3]; CB 3 10% FCS, 2 weeks ex-vivo",5%
same,Engraftment CD34 (%),"[3]; CB 3 10% FCS, 2 weeks ex-vivo",4%
same,Engraftment CD45 (%),"[3]; CB 3 10% FCS, 2 weeks ex-vivo",20%
same,Engraftment Colonies (per 2 × 10^5 SCID BM cells),"[3]; CB 3 10% FCS, 2 weeks ex-vivo",100
same,Engraftment CD19 (%),"[3]; CB 4 1% FCS, 2 weeks ex-vivo",8%
same,Engraftment CD34 (%),"[3]; CB 4 1% FCS, 2 weeks ex-vivo",7%
same,Engraftment CD45 (%),"[3]; CB 4 1% FCS, 2 weeks ex-vivo",28%
same,Engraftment Colonies (per 2 × 10^5 SCID BM cells),"[3]; CB 4 1% FCS, 2 weeks ex-vivo",185
same,Engraftment CD19 (%),"[3]; CB 4 1% FCS, 4 weeks ex-vivo",14%
same,Engraftment CD34 (%),"[3]; CB 4 1% FCS, 4 weeks ex-vivo",9%
same,Engraftment CD45 (%),"[3]; CB 4 1% FCS, 4 weeks ex-vivo",40%
same,Engraftment Colonies (per 2 × 10^5 SCID BM cells),"[3]; CB 4 1% FCS, 4 weeks ex-vivo",267
same,Engraftment CD19 (%),"[3]; CB 5- FCS, 4 weeks ex-vivo",9%
same,Engraftment CD34 (%),"[3]; CB 5- FCS, 4 weeks ex-vivo",6%
same,Engraftment CD45 (%),"[3]; CB 5- FCS, 4 weeks ex-vivo",21%
same,Engraftment Colonies (per 2 × 10^5 SCID BM cells),"[3]; CB 5- FCS, 4 weeks ex-vivo",275
same,Engraftment CD19 (%),"[3]; CB 6 1% FCS, 2 weeks ex-vivo",19%
same,Engraftment CD34 (%),"[3]; CB 6 1% FCS, 2 weeks ex-vivo",16%
same,Engraftment CD45 (%),"[3]; CB 6 1% FCS, 2 weeks ex-vivo",73%
same,Engraftment Colonies (per 2 × 10^5 SCID BM cells),"[3]; CB 6 1% FCS, 2 weeks ex-vivo",350
same,Engraftment CD19 (%),"[3]; CB 6 10% FCS, 2 weeks ex-vivo",26%
same,Engraftment CD34 (%),"[3]; CB 6 10% FCS, 2 weeks ex-vivo",9%
same,Engraftment CD45 (%),"[3]; CB 6 10% FCS, 2 weeks ex-vivo",73%
same,Engraftment Colonies (per 2 × 10^5 SCID BM cells),"[3]; CB 6 10% FCS, 2 weeks ex-vivo",420
same,cord blood samples (of 6) expanded ex-vivo that succeeded to engraft the animals,[3]; expanded in the presence of TEPA,6

# Source: patent publication US20050054103A1, “Expansion of renewable stem cell populations using modulators of PI 3-kinase” (priority 2003, published 2005)
